Test [1] deals with T1, human RXFP3 (hRXFP3) (Homo sapiens, UniProt Q9NSD7).
T1 sequence (Q9NSD7 1-469): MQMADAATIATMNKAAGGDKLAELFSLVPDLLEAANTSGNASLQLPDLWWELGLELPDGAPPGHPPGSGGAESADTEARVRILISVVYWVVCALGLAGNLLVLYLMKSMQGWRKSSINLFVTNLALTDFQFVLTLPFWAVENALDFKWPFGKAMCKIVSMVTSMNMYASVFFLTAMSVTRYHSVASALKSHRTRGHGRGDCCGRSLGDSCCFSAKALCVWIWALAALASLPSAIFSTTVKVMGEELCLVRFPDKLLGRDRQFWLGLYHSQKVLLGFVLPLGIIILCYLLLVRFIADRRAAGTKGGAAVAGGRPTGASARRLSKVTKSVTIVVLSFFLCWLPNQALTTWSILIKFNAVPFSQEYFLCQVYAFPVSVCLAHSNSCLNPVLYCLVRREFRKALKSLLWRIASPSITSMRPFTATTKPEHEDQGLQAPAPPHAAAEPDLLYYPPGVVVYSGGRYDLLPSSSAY
Put plainly: cell-based. Also on record: HTS inhibition of forskolin-stimulated cAMP, TR-FRET; % activation relative to R3/I5. Particulars: hRXFP3-CHO; primary screen, single dose; read-out: % activation. As for the experimental part: (§1) The HTS campaign was carried out in white 384-well plates by measuring the inhibition of forskolin-stimulated cAMP accumulation in hRXFP3-CHO cells. Briefly, the positive control (5 nM R3/I5) and negative control (1% DMSO) were located at the 64 wells of the outer four columns on both sides with 32 replicates, respectively. The individual screening compounds were loaded at the center twenty columns with an average final concentration of 10 μM in a single-dose format without replicates. Time-resolved fluorescence resonance energy transfer (TR-FRET) signals were read by an EnVision multilabel plate reader (PerkinElmer). Z’ factor, coefficient of variation (CV) and signal-to-background ratio (S/B) were calculated according to the literature. Positive control was regarded as 100% activation, while negative control represented no activation. Compounds showing greater than 50% activation were considered hits, and secondary screening using the same assay was performed to eliminate false positives. cAMP accumulation assay was performed in hRXFP3-CHO cells at a density of 5 × 10^5 cells/mL. The cells were treated with different concentrations of compounds plus 25 μM forskolin and 500 μM IBMX for 30 min at room temperature (RT). cAMP-d2 conjugate and cryptate conjugate working solutions were then diluted and added to the plates separately. Plates were incubated at RT for 60 min and the fluorescence intensity measured at 620 nm and 665 nm by an EnVision multilabel plate reader. The parental CHO cells were applied to examine off-target effect, while hRXFP4-CHO cells were utilized for selectivity assessment.

A further test concerns the target human RXFP4 (hRXFP4) (Homo sapiens, UniProt Q8TDU9). The test is described as follows: cAMP accumulation TR-FRET in hRXFP4-CHO cells. It counts as cell-based.
Test [2] concerns the target T1, human RXFP3 (hRXFP3). Put plainly: competition binding with europium-labelled H3 B1-22R on RXFP3 CHO-K1 cells. It is filed as cell-based. Particulars: 5 nM Eu-H3 B1-22R, one-site fit Ki, tracer Kd 26 nM; competitive.
Test [3] deals with T1, human RXFP3 (hRXFP3). Put plainly: cell-based. The note with it: vs 5 nM Eu-H3 B1-22R. Details: species or system CHO-K1; Europium-labelled H3 B1-22R competition binding on CHO-K1 cells stably expressing RXFP3. The method, then: CHO-K1 cells stably transfected with RXFP3 were plated onto pre-coated poly-L-lysine 96-well plates for the binding assay performed using 5 nM europium (Eu)-H3 B1-22R as previously described with triplicate determinations within assay and a minimum of three independent experiments. Data are presented as means ± SEM. pKi values were calculated using one-site fit Ki and a Kd value of 26 nM for H3 B1-22R [47].

In test [4] the target is T1, human RXFP3 (hRXFP3). The test is described as follows: cAMP accumulation TR-FRET in hRXFP3-CHO cells. It counts as cell-based.
For test [5], the target named is T1, human RXFP3 (hRXFP3). The test is described as follows: cell-based. Details: TR-FRET inhibition of forskolin-stimulated cAMP accumulation, single-dose primary screen, percent of R3/I5 control. Particulars: CHO; primary screen, relative to 5 nM R3/I5; read-out: % activation. As for the experimental part:
as §1, with “The cells were treated with different concentrations of compounds plus 25 μM forskolin and 500 μM IBMX for 30 min at room temperature (RT). cAMP-d2 conjugate and cryptate conjugate working solutions were then diluted and added to the plates separately.” left out, “The parental CHO cells were applied to examine off-target effect, while hRXFP4-CHO cells were utilized for selectivity assessment.” left out

SMILES strings stand for the structures. Read-outs that look alike come from different tables or passages of the source.

From publication PMC8709172, “High-Throughput Screening Campaign Identified a Potential Small Molecule RXFP3/4 Agonist” (Molecules, 2021) come the findings set out here.

human RXFP4 (hRXFP4), sequence (Q8TDU9 whole entry): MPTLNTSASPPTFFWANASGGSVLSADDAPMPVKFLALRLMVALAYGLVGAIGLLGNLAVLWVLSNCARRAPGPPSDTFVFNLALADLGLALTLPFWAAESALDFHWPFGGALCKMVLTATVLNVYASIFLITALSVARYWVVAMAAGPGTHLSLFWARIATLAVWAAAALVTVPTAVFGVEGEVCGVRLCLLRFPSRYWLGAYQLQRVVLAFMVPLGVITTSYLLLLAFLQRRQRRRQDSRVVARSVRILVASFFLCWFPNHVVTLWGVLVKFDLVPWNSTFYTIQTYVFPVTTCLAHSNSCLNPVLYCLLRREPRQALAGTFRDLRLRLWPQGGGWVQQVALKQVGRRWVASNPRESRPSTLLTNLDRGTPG

With `C[N+](C)=c1ccc2nc3ccc(N)cc3sc-2c1` [WNN0314-F004], the activity at 10 µM on human RXFP3 (hRXFP3) [1] is 50%.

On to `O=C(CCCCN1CCCCC1)c1ccccc1` [WNN0028-D009], for which the activity at 10 µM at human RXFP3 (hRXFP3) [1] was found to be 56%.

Turning to `CS/C(=N/C#N)Nc1ccc2c(c1)OCCO2` [WNN0027-G008], the activity at 10 µM on human RXFP3 (hRXFP3) [1] worked out at 56%.

Consider `Nc1ccc2sc3[nH]c(=O)c(=O)[nH]c3c2c1` [WNN0003-B006], for which the activity at 10 µM at human RXFP3 (hRXFP3) [1] amounted to 54%.

With `O=C(c1ccccc1O)N1CCc2nc3ncccc3cc2C1` [WNN0195-H002], the activity at 10 µM on human RXFP3 (hRXFP3) [1] amounted to 65%.

On to `CSc1nccc(-c2ccc(Br)s2)n1` [WNN0196-B004], for which, at human RXFP3 (hRXFP3) [1], the activity at 10 µM stood at 78%.

For `O=c1[nH]c2scc(C3CCCCC3)c2[nH]c1=O` [WNN0003-F007], the activity at 10 µM at human RXFP3 (hRXFP3) [1] is 51%.

On to `O=C(O)C1CCCN(CCC=C2c3ccccc3CCc3cc(-c4ccccc4)ccc32)C1` (stereo not drawn) [WNN0063-E008], for which the activity at 10 µM at human RXFP3 (hRXFP3) [1] came to 68%.

On to `O=c1[nH]c2ccccc2n(C(c2ccccc2)c2ccccc2)c1=O` [WNN0119-H005], for which the activity at 10 µM on human RXFP3 (hRXFP3) [1] worked out at 82%.

Usually EC50 stands for the concentration at which the effect is half-maximal. Lower therefore signals greater potency. For orientation: Ki means the dissociation constant of the complex between target and ligand, obtained from inhibition or displacement. A lower Ki goes with a stronger hold on the target. Turning to `CC(C)(CCc1ccc(NS(=O)(=O)c2ccccc2)cc1)NCC(O)COc1ccc(O)c(NS(C)(=O)=O)c1` (racemic) [WNN0109-C011], the EC50 was 33.9 µM at human RXFP4 (hRXFP4) and 2510 nM on human RXFP3 (hRXFP3) [4]. The pKi result at human RXFP3 (hRXFP3) [2] was “further confirmed the direct binding of WNN0109-C011 and its two enantiomers with RXFP3”. This molecule showed a Ki at human RXFP3 (hRXFP3) [3] of 41.7 µM. Further, on human RXFP3 (hRXFP3) [5], the activity at 10 µM turned out to be 85%.

As to `CC(C)(CCc1ccc(NS(=O)(=O)c2ccccc2)cc1)NC[C@H](O)COc1ccc(O)c(NS(C)(=O)=O)c1` [S-WNN0109-C011], on human RXFP3 (hRXFP3) [2], the pKi result is “further confirmed the direct binding of WNN0109-C011 and its two enantiomers with RXFP3”. At human RXFP3 (hRXFP3) [3], this molecule showed a Ki of 91.2 µM.

`O=C1NCCCC1C1=NC(CO)(CO)CO1` (stereo not drawn) [WNN0027-E003]: on human RXFP3 (hRXFP3) [1], the activity at 10 µM worked out at 53%.

In the case of `Cc1sc2[nH]c(=O)c(=O)[nH]c2c1C` [WNN0003-G011], the activity at 10 µM on human RXFP3 (hRXFP3) [1] turned out to be 54%.

For `CN(C)c1ccc2nc3ccc(=[N+](C)C)cc-3sc2c1` [WNN0314-G003], on human RXFP3 (hRXFP3) [1], the activity at 10 µM stood at 51%.

As for `O=C(O)Cn1c(=O)c(=O)[nH]c2c(Br)cc(Br)cc21` [WNN0002-F006], the activity at 10 µM on human RXFP3 (hRXFP3) [1] turned out to be 73%.

On to `CC(C)(CCc1ccc(NS(=O)(=O)c2ccccc2)cc1)NC[C@@H](O)COc1ccc(O)c(NS(C)(=O)=O)c1` [R-WNN0109-C011], for which the pKi entry on human RXFP3 (hRXFP3) [2] is “further confirmed the direct binding of WNN0109-C011 and its two enantiomers with RXFP3”. Besides, the Ki on human RXFP3 (hRXFP3) [3] is 31.6 µM.

Consider `O=C(O)C1CCN(CCC=C2c3ccccc3CCc3cc(-c4ccccc4)ccc32)CC1` [WNN0063-E009], for which the activity at 10 µM at human RXFP3 (hRXFP3) [1] is 130%.

With `Cc1csc2[nH]c(=O)c(=O)n(C)c12` [WNN0004-D007], the activity at 10 µM on human RXFP3 (hRXFP3) [1] is 57%.
